The source of these data is ChEMBL document CHEMBL4265919, “Structural alterations based on naproxen scaffold: Synthesis, evaluation of antitumor activity and COX-2 inhibition, and molecular docking” (Eur J Med Chem, 2018).

For orientation: IC50 means the concentration needed to halve the response being measured. High values mean a need for much substance, low ones inhibition by little substance.

The test system of one test is HeLa. Nature of the test: Antiproliferative activity against human HeLa cells by MTT assay. The test is classed as functional, cell-based.
The next test concerns MCF7. Nature of the test: Antiproliferative activity against human MCF7 cells by MTT assay. The format is functional, cell-based. In general terms: Formazan colour is commonly taken as a measure of viable cells.
The next test relates to Caco-2. Nature of the test: Antiproliferative activity against human Caco2 cells by MTT assay. The format is functional, cell-based.
The next test has as its system MDA-MB-231. Nature of the test: Antiproliferative activity against human MDA231 cells by MTT assay. The format is functional, cell-based.
The subject of another test is HCT-116. Kind of test: Antiproliferative activity against human HCT116 cells by MTT assay. The format is functional, cell-based.
The target in test [1] is T1, Prostaglandin G/H synthase 1 (Ovis aries, UniProt P05979).
T1 sequence (P05979 whole entry): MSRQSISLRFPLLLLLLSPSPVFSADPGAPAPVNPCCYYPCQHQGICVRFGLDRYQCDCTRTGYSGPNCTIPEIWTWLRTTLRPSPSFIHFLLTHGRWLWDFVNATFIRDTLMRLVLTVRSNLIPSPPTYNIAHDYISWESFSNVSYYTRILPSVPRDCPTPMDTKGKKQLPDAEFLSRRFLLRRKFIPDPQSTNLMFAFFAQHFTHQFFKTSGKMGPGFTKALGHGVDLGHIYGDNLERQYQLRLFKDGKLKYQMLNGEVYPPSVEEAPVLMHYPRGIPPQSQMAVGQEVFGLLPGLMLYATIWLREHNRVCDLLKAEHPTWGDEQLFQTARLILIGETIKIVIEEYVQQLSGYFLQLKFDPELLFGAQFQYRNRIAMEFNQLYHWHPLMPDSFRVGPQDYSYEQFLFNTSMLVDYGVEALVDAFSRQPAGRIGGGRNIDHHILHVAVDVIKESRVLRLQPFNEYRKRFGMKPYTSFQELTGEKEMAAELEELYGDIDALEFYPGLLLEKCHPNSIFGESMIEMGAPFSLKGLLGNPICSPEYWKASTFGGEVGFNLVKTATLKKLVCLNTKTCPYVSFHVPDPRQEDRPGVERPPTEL
Kind of test: Inhibition of ovine COX1 using arachidonic acid as substrate incubated for 5 mins followed by substrate addition measured after 2 mins by colorimetric based ELISA. (An ELISA detects its analyte on a solid surface through an enzyme-linked reagent.)

Consider `COc1ccc2cc(C(C)C(=O)NN=C3CCN(C)CC3)ccc2c1` (stereo not drawn), for which the IC50 in the test with HeLa was 51.6 µM; in the test on MCF7, 68.7 µM; in the test on Caco-2 it was over 100 µM; with MDA-MB-231, 72 µM; in the test with HCT-116 it was 83.6 µM.

`Cc1ccc(-c2cc(C(F)(F)F)nn2-c2ccc(S(N)(=O)=O)cc2)cc1` [CELECOXIB]: the IC50 with HeLa came to 36.1 µM; in the test with MCF7, 31.3 µM; in the test on Caco-2, 42.7 µM; in the test on MDA-MB-231 it was 22.8 µM; in the test on HCT-116, 29.5 µM.

As for `COc1ccc2cc(C(C)c3nnc4n3N=C(c3ccccc3)CS4)ccc2c1` (stereo not drawn), the IC50 in the test on Caco-2 was determined as 81.3 µM; with MDA-MB-231 it was 49.2 µM; with HCT-116, 67.4 µM.

Turning to `COc1ccc2cc(C(C)c3nnc(-c4ccc([N+](=O)[O-])cc4)o3)ccc2c1` (stereo not drawn), the IC50 was 35.1 µM in the test with HeLa; over 25 µM in test [1]; 42.1 µM in the test on MCF7; over 100 µM in the test on Caco-2; 66.3 µM in the test on MDA-MB-231; 75 µM with HCT-116.

`COc1ccc2cc(C(C)c3nnc(-c4ccc(O)cc4)o3)ccc2c1` (stereo not drawn): the IC50 in the test with HeLa is 6.15 µM; in test [1], over 25 µM; in the test on MCF7, 5.89 µM; with Caco-2, 33.9 µM; with MDA-MB-231 it was 7.29 µM; with HCT-116, 10.5 µM.

As to `COc1ccc2cc(C(C)c3n[nH]c(=S)n3/N=C/c3cccc(Br)c3)ccc2c1` (stereo not drawn), the IC50 with HeLa is 12.1 µM; in test [1], over 25 µM; in the test with MCF7, 9.26 µM; in the test with Caco-2, 16 µM; in the test on MDA-MB-231, 8.14 µM; in the test with HCT-116 it was 8.76 µM.

On to `COc1ccc2cc(C(C)c3nnc(SCc4ccccc4)o3)ccc2c1` (stereo not drawn), for which the IC50 in the test with HeLa was over 100 µM; with MCF7 it was 91.4 µM; in the test with Caco-2, over 100 µM; in the test on MDA-MB-231, 89.4 µM; in the test on HCT-116 it was over 100 µM.

As for `COc1cccc2c1C(=O)c1c(O)c3c(c(O)c1C2=O)C[C@@](O)(C(=O)CO)C[C@@H]3O[C@H]1C[C@H](N)[C@H](O)[C@H](C)O1` [DOXORUBICIN], the half-maximal inhibitory concentration (IC50) with Caco-2 is 26.8 µM.

`COc1ccc2cc(C(C)c3n[nH]c(=S)n3/N=C/c3ccc(O)cc3)ccc2c1` (stereo not drawn): the 50% inhibitory concentration (IC50) in the test with HeLa is 9.03 µM; in test [1] it was over 25 µM; in the test with MCF7 it was 7.74 µM; in the test with Caco-2 it was 13.8 µM; with MDA-MB-231 it was 4.83 µM; with HCT-116, 5.14 µM.

For the compound `CN(C)C/C=C/C(=O)Nc1cc2c(Nc3ccc(F)c(Cl)c3)ncnc2cc1O[C@H]1CCOC1` [AFATINIB], the IC50 in the test with HeLa is 6.2 µM; with MCF7 it was 7.1 µM; in the test on Caco-2, 7.7 µM; with MDA-MB-231, 7.5 µM; in the test with HCT-116 it was 11.4 µM.

With `COc1ccc2cc(C(C)C(=O)NN=C3CCCCC3)ccc2c1` (stereo not drawn), the concentration for half-maximal inhibition (IC50) in the test on HeLa was 13 µM; in test [1], over 25 µM; with MCF7, 12.1 µM; with Caco-2 it was 18.8 µM; in the test on MDA-MB-231 it was 9.65 µM; with HCT-116, 14.5 µM.

As for `COc1ccc2cc(C(C)c3nnc4n3NC(=O)CS4)ccc2c1` (stereo not drawn), the IC50 was 86.4 µM with HeLa; 85.7 µM in the test on MCF7; over 100 µM in the test with Caco-2; 93.8 µM in the test on MDA-MB-231; over 100 µM with HCT-116.

`COc1ccc2cc(C(C)C(=O)NN=C3CCCC3)ccc2c1` (stereo not drawn): the concentration for half-maximal inhibition (IC50) in the test with HeLa was 69.1 µM; in the test with MCF7, 71.5 µM; in the test on Caco-2, over 100 µM; with MDA-MB-231, 80.7 µM; in the test with HCT-116, over 100 µM.

As to `COc1ccc2cc(C(C)C(=O)NN=C3CCCCCC3)ccc2c1` (stereo not drawn), the IC50 with HeLa was 59.4 µM; in test [1], over 25 µM; with MCF7 it was 48.2 µM; with Caco-2, 46.1 µM; in the test with MDA-MB-231, 32.7 µM; in the test on HCT-116, 44.7 µM.

With `COc1ccc2cc(C(C)C(=O)NN3C(=O)c4ccccc4C3=O)ccc2c1` (stereo not drawn), the IC50 with HeLa was 78.6 µM; in test [1], over 25 µM; with MCF7 it was 79.3 µM; with Caco-2, 58.2 µM; in the test with MDA-MB-231, 37.2 µM; in the test with HCT-116, 49.8 µM.

Consider `COc1ccc2cc(C(C)c3n[nH]c(=S)n3/N=C/c3ccccc3)ccc2c1` (stereo not drawn), for which the half-inhibitory concentration (IC50) with HeLa was 65.6 µM; in test [1], over 25 µM; in the test on MCF7, 61.7 µM; in the test with Caco-2, 28 µM; with MDA-MB-231 it was 14.8 µM; in the test on HCT-116, 19.1 µM.

In the case of `COc1ccc2cc(C(C)C(=O)NN3C(=O)CCC3=O)ccc2c1` (stereo not drawn), the IC50 is 30.4 µM in the test on HeLa; over 25 µM in test [1]; 26.7 µM with MCF7; 63.8 µM with Caco-2; 52.8 µM in the test with MDA-MB-231; 56.2 µM in the test on HCT-116.

Regarding `COc1ccc2cc(C(C)c3nnc(SC)o3)ccc2c1` (stereo not drawn), the half-inhibitory concentration (IC50) with HeLa is 26.2 µM; in test [1], over 25 µM; in the test with MCF7, 57.2 µM; with Caco-2, 73.5 µM; in the test on MDA-MB-231, 29.5 µM; with HCT-116, 39.9 µM.

On to `COc1ccc2cc(C(C)C(=O)NN3C(=O)C=CC3=O)ccc2c1` (stereo not drawn), for which the IC50 was 15.1 µM in the test on HeLa; over 25 µM in test [1]; 21.9 µM with MCF7; 39.5 µM in the test on Caco-2; 11.1 µM with MDA-MB-231; 22.1 µM with HCT-116.

Take `COc1ccc2cc(C(C)c3n[nH]c(=S)n3N)ccc2c1` (stereo not drawn): the IC50 in the test on HeLa was 20.7 µM; in test [1] it was over 25 µM; in the test with MCF7, 38.3 µM; in the test with Caco-2, 77.7 µM; with MDA-MB-231, 41.8 µM; with HCT-116, 60.5 µM.

Regarding `COc1ccc2cc(C(C)c3nnc(-c4ccc(C)cc4)o3)ccc2c1` (stereo not drawn), the IC50 was 19.4 µM in the test with HeLa; over 25 µM in test [1]; 31.7 µM with MCF7; 43.9 µM in the test with Caco-2; 16.2 µM in the test with MDA-MB-231; 28.4 µM in the test on HCT-116.

For `COc1ccc2cc(C(C)c3nnc(SC4CCCC4)o3)ccc2c1` (stereo not drawn), the half-inhibitory concentration (IC50) is 48.9 µM in the test with HeLa; over 25 µM in test [1]; 47.1 µM in the test on MCF7; 50.9 µM in the test on Caco-2; 23.2 µM in the test on MDA-MB-231; 34.3 µM with HCT-116.
